Patent US20180021373A1, “Ruthenium and Indium Binding to Gastrins” (EUPHARMA PTY LTD, priority 2015, published 2018)
Like-named read-outs stand apart in the source and are kept apart here.

How the values were obtained:
Ggly [1] = target: T1, Ggly (Homo sapiens, UniProt P01350); conditions: 20 equivalents; WO 2004/089976; cited from earlier work
progastrin = target: T2, progastrin (Homo sapiens, UniProt P01350); conditions: competition with ^59Fe^3+ ions (Baldwin 2004); cited from earlier work
T2 sequence (P01350 27-101 limits assumed): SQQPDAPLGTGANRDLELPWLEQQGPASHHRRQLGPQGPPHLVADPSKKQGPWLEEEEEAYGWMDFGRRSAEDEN

Ggly [2] = target: T1, Ggly; conditions: Ggly binds two Bi^3+ ions at pH 4; read-out: affinity; cited from earlier work
Ggly [3] = target: T1, Ggly; conditions: cited from earlier work; for quenching of Ggly fluorescence: WO 2004/089976; for binding to Ggly: detected by measurement of Ggly fluorescence (Baldwin 2001)
Gamide = target: T3, Gamide (Homo sapiens, UniProt P01350); assay: Absorption spectroscopy (280 nm) of metal ion binding to Gamide, fitted with BioEqs; conditions: for A280 (%) for first site / A280 (%) for second site / A280 (%) for mixed FeGastrinM complex: percentage absorbance at 280 nm, fitted
T3 construct: amidated gastrin34 and amidated gastrin17 (Gamide); purchased Auspep (Clayton, Australia)
Method: (§1) Gamide and Ggly (88 and 93% pure, respectively) were purchased from Auspep (Clayton, Australia). The impurities consisted of water and salts. Solutions of metal ions (Aldrich, St. Louis, Mo.) were prepared in 10 mM HCl, and their concentrations determined by inductively coupled plasma-atomic emission spectroscopy at the National Measurement Institute (Pymble, Australia).
(§2) The 280 nm absorption of peptides (10 μM in 10 mM sodium acetate, pH 4.0, containing 100 mM NaCl and 0.005% Tween 20) in the presence of increasing concentrations of metal ions was measured against a buffer blank, in 1 ml quartz cuvettes thermostatted at 298 K, with a Cary 5 spectrophotometer (Varian, Mulgrave, Australia).
(§3) Data (expressed as means±S.E.M.) were fitted to one-site or two-site ordered models (as per FIG. 1) with the program BioEqs.
(§4) New absorption data sets were obtained, and fitted with the program Bioeqs as described in the Materials and Methods section. […] In the 2 site competitive model gastrin binds two ferric ions with dissociation constants Kd1Fe and Kd2Fe, and two metal ions M to the same two sites with dissociation constants Kd1M and Kd2M. The dissociation constant Kd3M describes the formation of the mixed FeGastrinM complex.

Ggly [4] = target: T1, Ggly; assay: Absorption spectroscopy (280 nm) of metal ion binding to Ggly, fitted with BioEqs; conditions: for A280 (%) for first site / A280 (%) for second site / A280 (%) for mixed FeGastrinM complex: Ggly, percentage absorbance at 280 nm, fitted
Method: as §1, §2, §3, §4

gastrins = assay: Screen of binding affinities of a range of metals to gastrins
colon = conditions: infusion into gastrin-deficient mice (Wang 1996); cited from earlier work
[5] = Gamide 10 μM, pH 4.0, 298 K, 2 site model (Fe, Ga) or 2 site competitive model vs Fe^3+ (In, Ru), read-out: Kd1 (first iron binding site)
[6] = Gamide 10 μM, pH 4.0, 298 K, 2 site or 2 site competitive model, read-out: Kd2 (second site)
[7] = read-out: Kd2 (second site), Ggly 10 μM, pH 4.0, 298 K, 2 site or 2 site competitive model
[8] = Gamide, 2 site competitive model, read-out: Kd3 (formation of mixed FeGastrinM complex)

## [Al+3] [Al(III)]
Ggly [1]
  shift in Ggly NMR signals: nor did 20 equivalents of Al^3+ cause any significant shift in Ggly NMR signals
progastrin
  binding to progastrin: does not bind

## [Bi+3] [Bi^3+]
Ggly [2]
  Kd: 5.8 µM

## [Ca+2] [Ca(II)]
progastrin
  binding to progastrin: does not bind

## [Co+2] [Co(II)]
Ggly [3]
  quenching of Ggly fluorescence: not quench fluorescence
  binding to Ggly: does not bind
progastrin
  binding to progastrin: does not bind

## [Cr+3] [Cr(III)]
Ggly [3]
  quenching of Ggly fluorescence: not quench fluorescence
  binding to Ggly: does not bind
progastrin
  binding to progastrin: does not bind

## [Cu+2] [Cu(II)]
Ggly [3]
  quenching of Ggly fluorescence: not quench fluorescence
  binding to Ggly: does not bind
progastrin
  binding to progastrin: does not bind

## [Eu+3] [Eu(III)]
progastrin
  binding to progastrin: does not bind

## [Fe+2] [Fe(II)]
progastrin
  binding to progastrin: does not bind

## [Fe+3] [Fe^3+]
Gamide; [5]
  Kd: 0.3 nM
Gamide; [6]
  Kd: 0.085 nM
Gamide; Gamide
  A280 (%) for first site: 100.0%
  A280 (%) for second site: 313.4%
Ggly [4]
  A280 (%) for first site: 100.0%
  A280 (%) for second site: 365.9%
Ggly [4]; Kd1 (first iron binding site), Ggly 10 μM, pH 4.0, 298 K, 2 site model (Fe, Ga) or 2 site competitive model vs Fe^3+ (In, Ru)
  Kd: 5.7 nM
Ggly [4]; Kd2 (second site), Ggly 10 μM, pH 4.0, 298 K, 2 site or 2 site competitive model
  Kd: 7 nM

## [Ga+3] [Ga^3+]
Gamide; [5]
  Kd: 330 nM
Gamide; [6]
  Kd: 1100 nM
Gamide; Gamide
  A280 (%) for first site: 100.0%
  A280 (%) for second site: 335.8%
Gamide; Gastrin/Gamide, 2 site model, read-out: dissociation constant (Kd), first site
  Kd: 330 nM
Gamide; Gastrin/Gamide, 2 site model, read-out: dissociation constant (Kd), second site
  Kd: 1100 nM
Ggly [4]
  Kd: 17 nM
  A280 (%) for first site: 100.0%
  A280 (%) for second site: 340.2%
Ggly [4]; [7]
  Kd: 2300 nM

## [In+3] [In^3+]
Gamide; [6]
  Kd: 170 nM
Gamide; [8]
  Kd: 4 nM
Gamide; Gamide
  A280 (%) for first site: 100.0%
  A280 (%) for mixed FeGastrinM complex: 217.7%
  A280 (%) for second site: 74.1%
Ggly [4]
  Kd: 96 nM
  A280 (%) for first site: 100.0%
  A280 (%) for mixed FeGastrinM complex: 255.6%
  A280 (%) for second site: 72.8%
Ggly [4]; [7]
  Kd: 14000 nM

## [Mn+2] [Mn(II)]
Ggly [3]
  quenching of Ggly fluorescence: not quench fluorescence
  binding to Ggly: does not bind
progastrin
  binding to progastrin: does not bind

## [Ru+3] [Ru^3+]
Gamide; [6]
  Kd: 12000 nM
Gamide; [8]
  Kd: 17 nM
Gamide; Gamide
  A280 (%) for first site: 100.0%
  A280 (%) for mixed FeGastrinM complex: 264.9%
  A280 (%) for second site: 178.6%
Ggly [4]
  Kd: 1200 nM
  A280 (%) for first site: 100.0%
  A280 (%) for mixed FeGastrinM complex: 304.1%
  A280 (%) for second site: 1714.8%
Ggly [4]; [7]
  Kd: 360000 nM

## [Zn+2] [Zn(II)]
progastrin
  binding to progastrin: does not bind

## [Sb] [antimony]
gastrins
  high affinity binding to gastrins: did not show high affinity binding

## [AsH3] [arsenic]
gastrins
  high affinity binding to gastrins: did not show high affinity binding

## ZGPWLEEEEEAYGWMDFamide [gastrin/Gamide]
colon
  increase of colonic proliferative index: no effect
